Results: US20060069132A1, “Azolecarboxamide herbicides” (priority 2004, published 2006)

Tests used:
blackgrass (ALOMY) = experiment: Test J Compounds 2 and 6 alone and in combination with other herbicides, foliage spray; format: in vivo, Alopecurus myosuroides; parameters: key: 0 = no effect, 100 = complete control; details: applied alone
From the text: Colby's Equation was used to calculate the expected additive herbicidal effect of the mixtures of Compound 6 with Harmony® Extra (i.e. a 2:1 mixture by weight of thifensulfuron-methyl and tribenuron-methyl). […]
(§1) Seeds of test plants consisting of barnyardgrass (ECHCG; Echinochloa crus-galli (L.) Beauv.), blackgrass (ALOMY; Alopecurus myosuroides Huds.), Surinam grass (BRADC; Urochloa decumbens (Staph) R. D. Webster, previously named Brachiaria decumbens Stapf), cocklebur (XANST, Xanthium strumarium L.), corn (ZEAMD, Zea mays L. cv. ‘Pioneer 33G26’), large crabgrass (DIGSA, Digitaria sanguinalis (L.) Scop.), giant foxtail (SETFA, Setaria faberi Herrm.), lambsquarters (CHEAL, Chenopodium album L.), morningglory (IPOCO, Ipomoea coccinea L.), pigweed (AMARE, Amaranthus retroflexus L.), velvetleaf (ABUTH, Abutilon theophrasti Medik.) wheat (TRZAS, Triticum aestivum L. cv. ‘Recital’) and wild oat (AVEFA, Avena fatua L.) were planted in Redi-Earth® planting medium (Scotts Company, 14111 Scottslawn Road, Marysville, Ohio 43041) comprising spaghnum peat moss and vermiculite. […] Also listed in Table J are the expected effects for the mixtures calculated using Colby's Equation.

morningglory (IPOCO) = experiment: as above; format: in vivo, Ipomoea coccinea; parameters: key: 0 = no effect, 100 = complete control; details: applied alone
From the text: as §1, with “vermiculite. Seeds of small-seeded species were planted about 1 cm deep; larger seeds were planted about 2.5 cm deep. Plants were grown in a greenhouse using supplemental lighting to maintain a photoperiod of about 14 hours; daytime and nighttime temperatures were about 24-30° C. and 22-25° C., respectively. Balanced fertilizer was applied through the watering system.” for “vermiculite.”

pigweed = experiment: Test F pre-/postemergence herbicide test; format: in vivo, Amaranthus retroflexus
From the text: (§2) Seeds of plant species selected from annual blugrass (Poa annua L.), blackgrass (Alopecurus myosuroides Huds.), catchweed bedstraw (Gallium aparine L.), common chickweed (Stellaria media (L.) Vill./Cyr.), downy bromegrass (Bromus tectorum L.), green foxtail (Setaria viridis (L.) Beauv.), Italian ryegrass (Lolium multiflorum Lam.), kochia (Kochia scoparia (L.). Schrad.), lambsquarters (Chenopodium album L.), littleseed canarygrass (Phalaris minor Retz.), pigweed (Amaranthus retroflexus L.), Russian thistle (Salsola kali L. ssp. Ruthenica (Iljin) Soo), wild buckwheat (Polygonum convolvulus L.), wild mustard (Sinapis arvensis L.), wild oat (Avena fatua L.), windgrass (Apera spica-venti (L.) Beauv.), winter barley (Hordeum vulgare L.), and wheat (Triticum aestivum L.) were planted and treated preemergence with test chemicals formulated in a non-phytotoxic solvent mixture which included a surfactant.
(§3) At the same time, plants selected from these crop and weed species were treated with postemergence applications of some of the test chemicals formulated in the same manner. Plants ranged in height from 2 to 18 cm (1- to 4-leaf stage) for postemergence treatments. Treated plants and controls were maintained in a greenhouse for 12 to 14 days, after which time all species were compared to controls and visually evaluated. Plant response ratings, summarized in Table F, are based on a scale of 0 to 100 where 0 is no effect and 100 is complete control. A dash (-) response means no test result.

kochia = experiment: Test F pre-/postemergence herbicide test; format: in vivo, Kochia scoparia
From the text: as §2, §3

wild mustard = experiment: Test F pre-/postemergence herbicide test; format: in vivo, Sinapis arvensis
From the text: as §2, §3

In the case of `CCn1nc(C(C)(C)C)cc1C(=O)Nc1cc(C(=O)N(C)C)ccc1F` [Compound 6, N-[5-[(dimethylamino)carbonyl]-2-fluorophenyl]-3-(1,1-dimethylethyl)-1-ethyl-1H-pyrazole-5-carboxamide], the “ALOMY Obsd.” value (blackgrass (ALOMY); 62 g a.i./ha) is reported as 18, the “ALOMY Obsd.” value (blackgrass (ALOMY); 125 g a.i./ha) is reported as 33 and the “IPOCO Obsd.” value (morningglory (IPOCO); 62 g a.i./ha) is reported as 22. For the same molecule, the “IPOCO Obsd.” value (morningglory (IPOCO); 125 g a.i./ha) was 28.
With `CCn1nc(C(C)(C)C)cc1C(=O)Nc1cc(C(=O)OC(C)C)c(F)cc1F` [Compound 248] the “Plant response rating (0-100), Pigweed” value (pigweed; Postemergence, 31 g ai/ha) was 65, the “Plant response rating (0-100), Pigweed” value (pigweed; Postemergence, 62 g ai/ha) was 65 and the “Plant response rating (0-100), Pigweed” value (pigweed; Postemergence, 125 g ai/ha) was 70. For the same molecule, the “Plant response rating (0-100), Pigweed” value (pigweed; Postemergence, 250 g ai/ha) was 70, the “Plant response rating (0-100), Pigweed” value (pigweed; Preemergence, 31 g ai/ha) was 70 and the “Plant response rating (0-100), Pigweed” value (pigweed; Preemergence, 62 g ai/ha) was 75. The “Plant response rating (0-100), Pigweed” value (pigweed; Preemergence, 125 g ai/ha) was 95, the “Plant response rating (0-100), Pigweed” value (pigweed; Preemergence, 250 g ai/ha) was 95 and the “Plant response rating (0-100), Kochia” value (kochia; Postemergence, 31 g ai/ha) was 60. For the same molecule, the “Plant response rating (0-100), Kochia” value (kochia; Postemergence, 62 g ai/ha) was 60, the “Plant response rating (0-100), Kochia” value (kochia; Postemergence, 125 g ai/ha) was 65 and the “Plant response rating (0-100), Kochia” value (kochia; Postemergence, 250 g ai/ha) was 65. For the same molecule, the “Plant response rating (0-100), Kochia” value (kochia; Preemergence, 31 g ai/ha) was 50, the “Plant response rating (0-100), Kochia” value (kochia; Preemergence, 62 g ai/ha) was 60 and the “Plant response rating (0-100), Kochia” value (kochia; Preemergence, 125 g ai/ha) was 65. The “Plant response rating (0-100), Kochia” value (kochia; Preemergence, 250 g ai/ha) was 100, the “Plant response rating (0-100), Mustard, Wild” value (“Plant response rating … Wild” for short) (wild mustard; Postemergence, 31 g ai/ha) was 30 and the “Plant response rating … Wild” value (wild mustard; Postemergence, 62 g ai/ha) was 40. The “Plant response rating … Wild” value (wild mustard; Postemergence, 125 g ai/ha) was 60, the “Plant response rating … Wild” value (wild mustard; Postemergence, 250 g ai/ha) was 60 and the “Plant response rating … Wild” value (wild mustard; Preemergence, 31 g ai/ha) was 40. The “Plant response rating … Wild” value (wild mustard; Preemergence, 62 g ai/ha) was 50, the “Plant response rating … Wild” value (wild mustard; Preemergence, 125 g ai/ha) was 50 and the “Plant response rating … Wild” value (wild mustard; Preemergence, 250 g ai/ha) was 50.
